Test results from PMC6458069 (Molecular microbiology, 2019).
Substitutions are numbered along the chain they refer to. Converted amounts (≈) assume the structure as drawn. Like-named read-outs stand apart in the source and are kept apart here.

Legend:
[1] = biological target: human protein disulfide isomerase (PDI) (Homo sapiens, UniProt P07237); experiment: PDI insulin reduction assay; type: biochemical
M. tuberculosis H37Rv = M. tuberculosis H37Rv growth inhibition; settings: alamar blue assay, ±SD
[2] = system: MtVKOR expressed in E. coli; type: cell-based, M. tuberculosis
MtVKOR = MtVKOR (Mycobacterium tuberculosis, UniProt I6X5W1); experiment: In vitro ubiquinone reduction assay with purified MtVKOR; type: biochemical, M. tuberculosis
[3] = biological target: T1, PaDsbB1 expressed in E. coli (Pseudomonas aeruginosa, UniProt Q02TM7); type: cell-based, P. aeruginosa; settings: agar plates, HTS control
T1 sequence (Q02TM7 1-169): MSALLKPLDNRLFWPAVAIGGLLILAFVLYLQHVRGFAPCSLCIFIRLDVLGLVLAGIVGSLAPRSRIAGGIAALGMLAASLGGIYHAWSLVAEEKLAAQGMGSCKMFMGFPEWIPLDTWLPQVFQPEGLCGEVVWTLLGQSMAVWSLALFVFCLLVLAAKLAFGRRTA

[4] = system: M. tuberculosis JR1740 strain; type: cell-based; settings: JR1740 ± ATc
[5] = biological target: T2, RnVKOR expressed in E. coli (Rattus norvegicus, UniProt Q6TEK4, DEL31-33); experiment: Agar β-Gal^dbs assay, E. coli expressing RnVKOR; type: cell-based; settings: FSH250 strain (Figure 4)
T2 sequence (Q6TEK4 with tags, fused parts or gaps DEL31-33): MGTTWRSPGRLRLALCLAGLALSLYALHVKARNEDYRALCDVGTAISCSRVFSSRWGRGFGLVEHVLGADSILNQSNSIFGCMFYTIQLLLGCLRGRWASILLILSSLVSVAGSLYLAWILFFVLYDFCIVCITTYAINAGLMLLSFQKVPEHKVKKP

EcDsbB = biological target: T3, EcDsbB (Escherichia coli, UniProt P0A6M2, C49V/C8A); experiment: In vitro ubiquinone reduction assay with purified EcDsbB; type: biochemical, E. coli
T3 sequence (P0A6M2 1-176 C8A/C49V): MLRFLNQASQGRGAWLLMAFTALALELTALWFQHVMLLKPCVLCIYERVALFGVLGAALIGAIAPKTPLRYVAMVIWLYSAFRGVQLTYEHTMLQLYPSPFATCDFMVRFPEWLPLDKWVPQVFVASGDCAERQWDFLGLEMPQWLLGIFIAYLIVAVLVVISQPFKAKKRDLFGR

PaDsbB1 (ΔdsbB2) = biological target: T4, PaDsbB1 (ΔdsbB2) (Pseudomonas aeruginosa, UniProt Q02TM7); experiment: Elastase in vivo assay, ΔdsbB2 mutant; type: cell-based, P. aeruginosa
T4 sequence (Q02TM7 1-169): T1 sequence (Q02TM7 1-169)

PaDsbB2 = biological target: T5, PaDsbB2 (Pseudomonas aeruginosa, UniProt Q02EA7, C17A/C53A); experiment: In vitro ubiquinone reduction assay with purified PaDsbB2; type: biochemical, P. aeruginosa
T5 sequence (Q02EA7 1-163 C17A/C53A): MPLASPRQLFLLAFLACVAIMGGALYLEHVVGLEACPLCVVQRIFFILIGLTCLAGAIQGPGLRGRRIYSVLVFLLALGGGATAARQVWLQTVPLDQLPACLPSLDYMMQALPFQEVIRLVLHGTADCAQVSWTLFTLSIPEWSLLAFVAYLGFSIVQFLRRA

[6] = system: elastase (LasB) activity of P. aeruginosa wild type; experiment: Elastase in vivo assay, wild type P. aeruginosa; type: cell-based; settings: Pseudomonas aeruginosa, 15 h, read-out: Elastase in vivo assay IC50, WT
PaDsbB1 = biological target: T6, PaDsbB1 (Pseudomonas aeruginosa, UniProt Q02TM7, C154Y); experiment: In vitro ubiquinone reduction assay with purified PaDsbB1; type: biochemical, P. aeruginosa
T6 sequence (Q02TM7 1-169 C154Y): T1 sequence (Q02TM7 1-169) with C154Y

[7] = read-out: PDI IC50, insulin reduction assay, Table 2, 95% CI in parenthesis
[8] = read-out: In vitro assay MtVKOR Ki, 1–100 μM Ubiquinone-1, ±SD

Chain of human protein disulfide isomerase (PDI) (P07237 18-508): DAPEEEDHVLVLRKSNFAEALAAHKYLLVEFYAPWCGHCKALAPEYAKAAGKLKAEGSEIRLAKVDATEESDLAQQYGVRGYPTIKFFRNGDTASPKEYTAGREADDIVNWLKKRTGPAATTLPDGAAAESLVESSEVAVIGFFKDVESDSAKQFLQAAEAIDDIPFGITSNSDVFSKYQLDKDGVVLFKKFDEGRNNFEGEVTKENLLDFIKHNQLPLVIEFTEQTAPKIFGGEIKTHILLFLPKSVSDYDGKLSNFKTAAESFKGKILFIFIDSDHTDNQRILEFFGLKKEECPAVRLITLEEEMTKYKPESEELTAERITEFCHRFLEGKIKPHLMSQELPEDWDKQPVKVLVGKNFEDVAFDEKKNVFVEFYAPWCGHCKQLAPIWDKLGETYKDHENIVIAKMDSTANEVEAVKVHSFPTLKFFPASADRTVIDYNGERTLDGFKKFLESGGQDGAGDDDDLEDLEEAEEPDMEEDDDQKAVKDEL

| Compound | IC50 [1] [µM] | In vivo assay (MIC) (M. tuberculosis H37Rv) [µM] | IC50 [1, 7] [µM] | MIC in VKOR knockdown (induced) versus non-induced strain (in words) [4] | Inhibition of RnVKOR expressed in E. coli [5] | IC50 (EcDsbB) [µM] | Ki (EcDsbB) [µM] | Inhibition of PDI activity (in words) ([1]; insulin reduction assay) | IC50 (PaDsbB1 (ΔdsbB2)) [µM] | IC50 (PaDsbB2) [µM] | IC50 [6] [µM] | IC50 (PaDsbB1) [µM] | also measured |
| --- | --- | --- | --- | --- | --- | --- | --- | --- | --- | --- | --- | --- | --- |
| O=C1c2ccccc2C(=O)C1c1ccc(Br)cc1 [Bromindione, reference compound] | > 100 | 250 ± 0 |  |  |  |  |  |  |  |  |  |  | Inhibition of MtVKOR in E. coli screening strain (control) ([2]; agar plates, HTS control): inhibits; IC50 (MtVKOR): 5 ± 0.73 µM; Ki (MtVKOR): 1 ± 0.09 µM; Inhibition of PaDsbB1 in E. coli screening strain (control) [3]: but not PaDsbB1 |
| O=C(Nc1ccccc1)c1cc(Cl)ccc1O [MT1] |  | 50.5 ± 0 | > 100 | lower MICs | inhibited |  |  |  |  |  |  |  |  |
| OC(CNCc1ccccc1)Cn1c2ccc(Cl)cc2c2cc(Cl)ccc21 (centres unmarked) [MT2] |  | 26.04 ± 9 | > 100 | lower MICs | inhibited |  |  |  |  |  |  |  | Ki (MtVKOR; [8]): 4 ± 0.3 µM |
| c1ccc(Nc2nc3nonc3nc2Nc2ccccc2)cc1 [MT7] |  | 41 ± 0 | > 100 | lower MICs | inhibited |  |  |  |  |  |  |  |  |
| Nc1ncn([C@@H]2O[C@H](CO)[C@@H](O)[C@H]2O)c(=O)n1 [MT9] |  | >979 ± 0 | > 100 |  |  |  |  |  |  |  |  |  | MIC against MtVKOR when expressed in E. coli (Figure 3) [2]: 0.44 µM (≈ 0.107 µg/mL); Ki (MtVKOR; [8]): 2 ± 0.05 µM |
| NC(=O)c1nc(Cl)c(Cl)c(Cl)c1Cl [PA1] | > 100 |  |  |  | does not target | 150 ± 50 | 100 ± 30 | does not target | 121 | 600 ± 50 | 280 | 530 ± 60 |  |
| N#CC(C#N)=NNc1ccccc1 [PA2] | 98.3 |  |  |  |  | 37.5 ± 5 | 30 ± 7 | inhibited | > 100 | 83 ± 13 | > 100 | 83 ± 17 |  |
| Cn1c(=O)c([N+](=O)[O-])c(Cl)c2ccccc21 [PA3] | 98 |  |  |  |  |  | 13 ± 1.5 | inhibited | 9 | 3 ± 0.11 | 646 | 6 ± 0.6 | Ki (PaDsbB2): 7.5 ± 0.8 µM; Ki (PaDsbB1): 2.8 ± 0.2 µM |
| O=c1c(Cl)c(Cl)cnn1Cc1ccccc1Cl [compound 12, reference compound] | > 100 |  |  |  |  | 0.014 ± 0.0001 | 0.005 ± 0.001 |  | 8.6 | 6 ± 1 | 229 | 4.1 ± 0.6 | Ki (PaDsbB2): 4 ± 0.2 µM; Inhibition of PaDsbB1 in E. coli screening strain (control) [3]: inhibits; Ki (PaDsbB1): 3 ± 0.2 µM |
